In patent US5446023A, “Amphiphilic compounds derived from amino acids or peptides, their methods of synthesis and their application as drug delivery systems” (Alliance Pharmaceutical Corporation, priority 1992, dated 1995):

Columns and labels:
mice [1] = experiment: In vivo toxicity in mice, rapid intraperitoneal injection; conditions: 500 mg/kg
Experimental: (§1) In vivo toxicity of products 6a, 6b, 6c in mice. A rapid intraperitoneal injection was made, of 0.5 mL (25 mL/kg animal body weight, n=10) of a dispersion of these products in physiological water.

[2] = as above; conditions: mouse, in vivo, ip
Experimental: as §1

mice [3] = experiment: In vivo toxicity in mice, rapid intravenous injection; conditions: 625 mg/kg, 1 month of observation, 10 mice
Experimental: (§2) Example 24: In vivo toxicity of product 6i in mice. A rapid intravenous injection into the caudal vein, of 0.5 mL (25 mL/kg animal body weight) of a solution of 6i in physiological water, to which Pluronic F-68 was added as dispersant (25/10 g/L, 6i/Pluronic F-68) was made.

[4] = as above; conditions: mouse, in vivo, caudal vein, 25 mL/kg, 6i/Pluronic F-68 25/10 g/L, mice, read-out: tolerated dose
Experimental: as §2

human erythrocytes = experiment: Hemolytic activity on human erythrocytes; format: cell-based; conditions: concentration of 50 g/l, 1 hour, 37° C.
Experimental: Example 25: The hemolytic activity of products 6h, 6i was determined by adding 2 mL of a solution of these products in physiological water to an equal volume of a 1% suspension of human erythrocytes in an isotonic phosphate buffer. After an hour of incubation at 37° C. the solutions were centrifuged. The degree of hemolysis was determined spectrophotometrically (540 nm) by comparing the quantity of hemoglobin liberated in the supernatant. Compounds 6h, 6i were not hemolytic at a concentration of 50 g/l.

[5] = test system: lymphoblastoid cell cultures of the Namalva type; experiment: Toxicity on lymphoblastoid cell cultures (Namalva); format: cell-based; conditions: 4 days at 37° C.
Experimental: Example 26: The toxicity of products 6a and 6e was determined on lymphoblastoid cell cultures of the Namalva type in an RPMI medium containing 10% of foetal calf serum at 37° C. under 7% CO2, according to the method described by M. Le Blanc et al in Pharm. Res. 195 (1988).

[6] = Identification of vesicles by (transmission) electronic microscopy, negative staining; format: physicochemical; conditions: for formation of vesicles (transmission electronic microscopy): negative staining, after dispersion; for formation of vesicles: procedure of example 14, 10^-2 M; for formation of vesicles / formation of vesicles upon dispersion with water: electronic microscopy; for formation of vesicles upon dispersion with water: 10^-2 M
Experimental: (§3) Product 6a (30 mg) was dissolved in a mixture of chloroform/methanol (1/1 v/v) in a round 4 mL tube. The solvent was evaporated in a rotavapor until a uniform film was obtained. The remaining traces of solvent were eliminated under vacuum. Water for injectable preparations (3.97 mL) was added to the dried product. After stirring with a Vortex for 3 minutes, sonication (BRANSON B30, 7 mm probe, Power 5, pulsed mode 50, 15 minutes) at 20° C. above the phase-transition temperature gave a bluish dispersion.
The formation of vesicles was observed by transmission electronic microscopy by the negative staining method. The lipidic dispersion was applied on a grid covered with FORMVAR membrane. The sample was colored by depositing of a drop of phosphotungstic acid (2%, pH adjusted to 7) for 1 min. The excess acid was removed using a filter paper. The grid was then dried and the sample was examined using a PHILIPS microscope (CM2 Model) at 80 Kv.
FIG. 1 is a micrography obtained in these conditions on a 10^-2 M dispersion of product 6a.

[7] = Differential scanning calorimetry: phase transition temperature and transition enthalpy; format: physicochemical
Experimental: The phase transition temperatures and the transition enthalpies were determined after hydration by a known quantity of water using a SETARAM DSC-92 apparatus.
Example 22: Product 6d (16 mg) was hydrated with […] of a mixture of water/ethylene glycol 60/40 (hydratation percentage 28%).
Example 23: Product 6a (10.8 mg) was hydrated with a mixture of water/ethylene glycol 60/40 (hydration percentage 37%).

[8] = format: physicochemical; design: formation of vesicles after sonication: dose or concentration left out as unconfirmed
Experimental: as §3
An aqueous dispersion of compound 7b ([…], 60 mM) in citric acid (2 ml, 1M pH=4) was prepared (sonication, probe 3 mm, power5, room temperature, 5 min, mean diameter=35 nm). […] Adriamycin (12 ml, 30 mM) was added to the liposomal dispersion. The amount of drug encapsulated, the stability of encapsulation over time and the release of adriamycin were measured.

[9] = Observation of vesicles by electronic microscopy after freeze-fracture; format: physicochemical; conditions: 10^-2 M dispersions
Experimental: One drop of lipic dispersion (about […]) was placed on a copper support. Freezing was realized by rapid immersion in liquid propane […]. The fractures were realized using a Balzers BAF 300 at -120° C. under 10^-6 mmHg with a knife cooled to -150° C. The replicas were obtained by depositing a platinum layer (10-20 A) under an angle of 35° then carbon (110-120 A) with an angle of 90°. The replicas were then immersed in water, washed, placed on a copper grid (3 mm, 300 mesh) and examined with a HITACHI 600 electronic microscope (H600) at 75 KV. […] FIG. 2 represents the photomicrographs obtained on 10^-2 M dispersions of products 6b, 7a, 7b.

[10] = intraperitoneal, 1 month of observation, 10 mice
[11] = intraperitoneal, 25 mL/kg dispersion in physiological water, mice, read-out: tolerated dose
[12] = water/ethylene glycol 60/40, hydration percentage 37%
[13] = water/ethylene glycol 60/40, hydration percentage 28%, -10° C. to 45° C., 2° C./min

C=CCCCCCCCCC(CCC(F)(F)C(F)(F)C(F)(F)C(F)(F)C(F)(F)C(F)(F)F)NC(=O)CNC(=O)[C@H](O)[C@@H](O)[C@H](O[C@@H]1O[C@H](CO)[C@H](O)[C@H](O)[C@H]1O)[C@H](O)CO (stereo partly drawn) [Product 6c]
deaths (mice [1]; [10]): no deaths occurred | MTD at 730 h [2, 11]: 500 mg/kg

O=C(CNC(=O)[C@H](O)[C@@H](O)[C@H](O[C@@H]1O[C@H](CO)[C@H](O)[C@H](O)[C@H]1O)[C@H](O)CO)NCCC(F)(F)C(F)(F)C(F)(F)C(F)(F)C(F)(F)C(F)(F)C(F)(F)C(F)(F)F [Product 6i]
deaths (mice [3]): no deaths occurred | MTD at 730 h [4]: 625 mg/kg | hemolytic activity (human erythrocytes): not hemolytic | effect on growth and viability of the cells [5]: did not affect the growth and viability of the cells

C=CCCCCCCCCC(CCCCCCCCCCCC)NC(=O)CNC(=O)[C@H](O)[C@@H](O)[C@H](O[C@@H]1O[C@H](CO)[C@H](O)[C@H](O)[C@H]1O)[C@H](O)CO (stereo partly drawn) [Product 6a, Nα-[1-lactobionocarbonyl]-N-11[trieicos-1-en-yl] glycinamide]
deaths (mice [1]; mouse, in vivo, ip): no deaths occurred | MTD at 730 h [2]: 500 mg/kg | formation of vesicles (transmission electronic microscopy) [6]: formation of vesicles was also observed | Tc (phase transition temperature) [7, 12]: 22 °C | transition enthalpy [7, 12]: -11.6 mcal/mg | stability of dispersion (particle size) [8]: at least 1 month | effect of sterilization on vesicles ([8]; 121° C. for 15 minutes): did not significantly modify these vesicles | average particle diameter Φ after sterilization ([8]; after sterilization at 121° C. for 15 minutes): 61 nm | average particle diameter Φ before sterilization ([8]; before sterilization at 121° C. for 15 minutes): 58 nm | average particle diameter Φ ([8]; dispersion after sonication 15 min): 49 nm | effect on growth and viability of the cells [5]: did not affect the growth and viability of the cells

CCCCCCCCCC(CCC(F)(F)C(F)(F)C(F)(F)C(F)(F)C(F)(F)C(F)(F)F)NC(=O)CNC(=O)[C@H](O)[C@@H](O)[C@H](O[C@@H]1O[C@H](CO)[C@H](O)[C@H](O)[C@H]1O)[C@H](O)CO (stereo partly drawn) [Product 6e, N-α-1-[lactobionocarbonyl]-N-3-[1-(perfluorohexyl)dodecyl] glycinamide]
formation of vesicles after sonication ([8]; sonication 20 minutes): led to the formation of vesicles | average diameter of vesicles after sterilization ([8]; sonication 20 minutes, after sterilization): 318 nm | effect on growth and viability of the cells [5]: did not affect the growth and viability of the cells

C=CCCCCCCCCC(CCC(F)(F)C(F)(F)C(F)(F)C(F)(F)C(F)(F)C(F)(F)C(F)(F)C(F)(F)F)NC(=O)CNC(=O)[C@H](O)[C@@H](O)[C@H](O[C@@H]1O[C@H](CO)[C@H](O)[C@H](O)[C@H]1O)[C@H](O)CO (stereo partly drawn) [Product 6b, N-α-[1-lactobionocarbonyl]-N-3-[1-(perfluooctyl)tridec-12-enyl] glycinamide]
deaths (mice [1]; [10]): no deaths occurred | MTD at 730 h [2, 11]: 500 mg/kg | formation of vesicles [6]: led to the formation of vesicles | formation of vesicles (freeze-fracture) [9]: formation of vesicles was established

CCCCCCCCCCCCC(CCCCCCCCCCC)NC(=O)CNC(=O)[C@H](O)[C@@H](O)[C@H](O[C@@H]1O[C@H](CO)[C@H](O)[C@H](O)[C@H]1O)[C@H](O)CO (stereo partly drawn) [Product 6d, N-α-1-[lactobionocarbonyl]-N-12-[tetraeicosyl] glycinamide]
formation of vesicles [6]: led to the formation of vesicles | Tc (phase transition temperature) [7, 13]: 14 °C | transition enthalpy [7, 13]: -10.29 mcal/mg

O=C(CNC(=O)[C@H](O)[C@@H](O)[C@H](O[C@@H]1O[C@H](CO)[C@H](O)[C@H](O)[C@H]1O)[C@H](O)CO)NCCC(F)(F)C(F)(F)C(F)(F)C(F)(F)C(F)(F)C(F)(F)F [Product 6h, Nα-1-[lactobionocarbonyl]N-1-[2-(perfluorohexyl)ethyl] glycinamide]
hemolytic activity (human erythrocytes): not hemolytic | effect on growth and viability of the cells [5]: did not affect the growth and viability of the cells

C=CCCCCCCCCC(CCCCCCCCCCCC)NC(=O)CNC(=O)CNC(=O)[C@H](O)[C@@H](O)[C@H](O[C@@H]1O[C@H](CO)[C@H](O)[C@H](O)[C@H]1O)[C@H](O)CO (stereo partly drawn) [Product 7b, N-α-(N-α-1-lactobionocarbonyl)-glycyl-N-11-(trieicos-1-enyl) glycinamide]
formation of vesicles upon dispersion with water [6]: forms monolayered vesicles almost instantaneously | formation of vesicles (transmission electronic microscopy) [6]: formation of vesicles was also observed | mean diameter of liposomal dispersion ([8]; 60 mM in citric acid 1M pH=4, sonication 5 min, room temperature): 35 nm | formation of vesicles (freeze-fracture) [9]: formation of vesicles was established

CCCCCCCCCC(CCC(F)(F)C(F)(F)C(F)(F)C(F)(F)C(F)(F)C(F)(F)F)NC(=O)CNC(=O)CNC(=O)[C@H](O)[C@@H](O)[C@H](O[C@@H]1O[C@H](CO)[C@H](O)[C@H](O)[C@H]1O)[C@H](O)CO (stereo partly drawn) [Product 7a]
formation of vesicles upon dispersion with water [6]: forms monolayered vesicles almost instantaneously | formation of vesicles (transmission electronic microscopy) [6]: formation of vesicles was also observed | formation of vesicles (freeze-fracture) [9]: formation of vesicles was established
